Laboratory results as given in patent US20110217394A1, “Iridoid Based Formulations” (priority 2000, published 2011).

How the values were obtained:
[1] = HPLC-PDA quantitation of iridoids (DAA, AA), with method validation, precision and stability assays; conditions: fresh noni juice; for Amount detected, Inter-day: inter-day precision and stability assay over 3 consecutive days; for Amount detected, Day 1 / Amount detected, Day 2 / Amount detected, Day 3: intra-day precision and stability assay; for Amount detected, Day 1: n = 3, Day 1; for Amount detected, Day 2: n = 3, Day 2; for Amount detected, Day 3: n = 3, Day 3
Description: Acetonitrile (MeCN), methanol (MeOH), and water (H2O) of HPLC grade were obtained from Sigma-Aldrich (St. Louis, Mo., USA). Formic acid of analytical grade was purchased from Spectrum Chemical Mfg. Corp. (New Brunswick, N.J., USA). The chemical standard deacetylasperulosidic acid (DAA, 1) and asperulosidic acid (AA, 2) were isolated from noni fruits in our laboratory. […] They were accurately weighed and then dissolved in an appropriate volume of MeCN to produce corresponding stock solutions. The working standard solution of 1 and 2 for the calibration curve was prepared by diluting the stock solution with MeOH in seven concentration increments ranging from 0.00174-1.74 and 0.0016-0.80 mg/mL, respectively. All stock and working solutions were maintained at […] in a refrigerator. The calibration curves of standards were plotted after linear regression of the peak areas versus concentrations.
(§1) Tahitian noni fruit puree as used in this example is the mashed whole fruit, excluding seeds and pericarp. The fruits were originally collected from the Tahitian Islands. One gram of the puree was diluted with 5 mL of H2O—MeOH (1:1) and mixed thoroughly. The solution was then filtered through a nylon microfilter (0.45-μm pore size); the solution was collected into a 5 mL volumetric flask for HPLC analysis. Four batches of noni puree were analyzed in the experiments. Voucher specimens of the noni fruit puree are deposited in our lab. To test iridoid stability, a DAA solution of 0.5 mg/mL was prepared with MeOH. This solution was heated in a water-bath at 90° C. for 1 min, cooled to room temperature, and analyzed by HPLC.
Chromatographic separation was performed on a Waters 2690 separations module coupled with 996 PDA detectors, and equipped with an Atlantis C18 column (4.6 mm×250 mm; 5 Waters Corporation, Milford, Mass., USA). The pump was connected to two mobile phases: A; MeCN, and B; 0.1% formic acid in H2O (v/v), and eluted at a flow rate of 0.8 mL/min. The mobile phase was programmed consecutively in linear gradients as follows: 0-5 min, 0% A; and 40 min, 30% A. The PDA detector was monitored in the range of 210-400 nm (235 nm was selected for quantitative analysis). The injection volume was 10 μL for each of the sample solutions. The column temperature was maintained at 25° C. Data collection and integration were performed using Waters Millennium software revision 32.
The limits of detection (LOD) and quantitation (LOQ) were defined as the lowest concentrations of analytes in a sample that can be detected and quantified. These LOD and LOQ limits were determined on the basis of signal-to-noise ratios (S/N) of 3:1 and 10:1, respectively. The working solutions of standards 1 and 2 for LOD and LOQ were prepared by diluting them sequentially. The intra- and inter-day precision assays, as well as stability tests were performed by following the method applied to the sample analysis for 3 consecutive days. Accuracy of the method (recovery) was assessed by the recovery percentage of iridoids 1 and 2 in the spiked samples. The noni fruit puree samples were spiked with standards at 3 different concentrations (equivalent to 50%, 100% and 150% concentration of 1 and 2 in the samples). The recovery percentage was calculated using the ratio of concentration detected (actual) to those spiked (theoretical). Variation was evaluated by the relative standard deviation (RSD) of triplicate injections in the HPLC experiments.
The iridoid content, inclusive of deacetylasperulosidic acid (DAA) and asperulosidic acid (AA), was determined by HPLC, according to a previously reported method (Deng et al., 2010 b). Other significant secondary metabolites, such as scopoletin, rutin, and quercetin, were also determined by HPLC (Deng et al., 2010 a).
HPLC grade acetonitrile (MeCN), methanol (MeOH), and water (H2O) were obtained from Sigma-Aldrich (St. Louis, Mo., USA). Analytical grade formic acid was purchased from Spectrum Chemical Mfg. Corp. (New Brunswick, N.J., USA). […]

[2] = tested on: E. coli PQ37; test: Anti-genotoxicity test (SOS-chromotest with 4NQO, Example Three); type: cell-based; conditions: for reduction in genotoxicity: 250 μg iridoid plus 1.25 μg mL^-1 4NQO; for induction factor of 4NQO plus iridoid compared with vehicle blank: 250 μg mL^-1 iridoid plus 1.25 μg mL^-1 4NQO
Procedure: The primary DNA damage test was performed again, similar to the method described above. […] Induction factors were calculated in the same manner as described above.

[3] = tested on: mammalian cells; conditions: cited from earlier work
[4] = tested on: E. coli PQ37; test: Primary DNA damage test (SOS-chromotest); type: cell-based; conditions: for mean induction factor: 1000 μg mL^-1, less than two indicates absence of genotoxic activity; for induction of SOS repair: all concentrations tested, 7.81-1000 μg mL^-1
Procedure: The SOS-chromotest in E. coli PQ37 was used to determine the potential for DAA and AA to induce primary DNA damage. This test was carried out according to the previously developed method (Fish et al., 1987). […] E. coli PQ37 was incubated in LB medium in a 96-well plate at 37° C. in the presence of DAA or AA for 2 hours. The DAA and AA concentrations tested were 7.81, 15.6, 31.2, 62.5, 125, 250, 500, and 1000 μg mL^−1. Samples were evaluated in triplicate. Following incubation with the samples, 5-bromo-4-chloro-3-indolyl-β-D-galactopyranoside was added to the wells to detect β-galactosidase enzyme activity, which is induced during SOS repair of damaged DNA. Nitrophenyl phosphate is also added to the wells to measure alkaline phosphatase activity, an indicator of cell viability. The samples were again incubated and the absorbances of the samples, blanks and controls were measured at 410 and 620 nm with a microplate reader. […] The induction factor of each material was calculated by dividing the absorbance of the sample at 620 nm by that of the blank, while also correcting for cell viability. Induction factors less than two indicate an absence of genotoxic activity.

[5] = tested on: E. coli PQ37; type: cell-based; conditions: 250 ug mL^-1 iridoid plus 1.25 ug mL^-1 4NQO; blank = 1
Procedure: The SOS-chromotest in E. coli PQ37 was used to determine the potential for iridoids in noni fruit from French Polynesia to prevent primary DNA damage. E. coli PQ37 was incubated at 37° C. in the presence of deacetylasperulosidic acid and asperulosidic acid at a concentration of 250 ug mL^−1 in a 96-well plate. Replicate samples were evaluated. […] Following incubation with the samples, 5-bromo-4-chloro-3-indolyl-β-D-galactopyranoside was added to the wells to detect β-galactosidase enzyme activity, which is induced during SOS repair of damaged DNA. The samples were again incubated for 90 minutes and the absorbances of the samples, blank and positive control were measured at 620 nm with a microplate reader. The β-galactosidase enzyme activity induction factor of each material was calculated by dividing the absorbance of the sample at 620 nm by that of the blank, while also correcting for cell viability.

[6] = Thermal stability of DAA under pasteurization conditions (HPLC); type: physicochemical; conditions: 90° C. at pH 3.3 for one minute
Procedure: as §1
Noni fruit juice is usually subjected to heat pasteurization during commercial processing. Pasteurization is usually employed in noni industry, i.e., heating up to 87.7° C. for several seconds. In this study, the stability of DAA was conducted. DAA was exposed to 90° C. at pH 3.3 for one minute to determine its thermal stability at acidic conditions.

[7] = 7.81 μg mL^−1, E. coli PQ37, 2 hours
[8] = 15.6 μg mL^−1, E. coli PQ37, 2 hours
[9] = 31.2 μg mL^−1, E. coli PQ37, 2 hours
[10] = 62.5 μg mL^−1, E. coli PQ37, 2 hours
[11] = 125 μg mL^−1, E. coli PQ37, 2 hours
[12] = 250 μg mL^−1, E. coli PQ37, 2 hours
[13] = 500 μg mL^−1, E. coli PQ37, 2 hours
[14] = 1000 μg mL^−1, E. coli PQ37, 2 hours

SMILES	Amount detected, Inter-day [1]	Amount detected, Day 1 [1]	Amount detected, Day 2 [1]	Amount detected, Day 3 [1]	reduction in genotoxicity [2]	induction factor of 4NQO plus iridoid compared with vehicle blank [2]	genotoxicity in mammalian cells [3]	Induction factor [4, 7]	Induction factor [4, 8]	Induction factor [4, 9]	Induction factor [4, 10]	Induction factor [4, 11]	Induction factor [4, 12]	Induction factor [4, 13]	mean induction factor [4]	Induction factor [4, 14]	induction of SOS repair [4]	β-galactosidase enzyme activity induction factor of iridoid plus 4NQO (mean±standard deviation) [5]	thermal stability (DAA content before and after heating) [6]
CC(=O)OCC1=C[C@H](O)[C@@H]2C(C(=O)O)=CO[C@@H](O[C@@H]3O[C@H](CO)[C@@H](O)[C@H](O)[C@H]3O)[C@H]12 [AA, asperulosidic acid]	0.281 mg/mL	0.276 mg/mL	0.281 mg/mL	0.287 mg/mL	99.22%	no statistical difference from that of the vehicle blank	non-genotoxic	1.01 ± 0.05	1.04 ± 0.11	0.99 ± 0.06	1.04 ± 0.13	1.02 ± 0.08	1.11 ± 0.16	1.07 ± 0.04	1.09	1.09 ± 0.03	did not induce any SOS repair at a frequency significantly above that of the blank		
O=C(O)C1=CO[C@@H](O[C@@H]2O[C@H](CO)[C@@H](O)[C@H](O)[C@H]2O)[C@@H]2C(CO)=C[C@H](O)[C@H]12 [DAA, deacetylasperulosidic acid]	1.297 mg/mL	1.308 mg/mL	1.291 mg/mL	1.291 mg/mL	98.96%	no statistical difference from that of the vehicle blank	non-genotoxic	0.93 ± 0.13	1.03 ± 0.16	1.04 ± 0.08	1.05 ± 0.07	1.00 ± 0.08	1.06 ± 0.06	1.03 ± 0.02	1.07	1.07 ± 0.14	did not induce any SOS repair at a frequency significantly above that of the blank	0.98±0.02	no difference in the DAA contents before and after heating
